Counter-ions that a name gives are not always drawn. Like-named read-outs stand apart in the source and are kept apart here.

Common to all, as to format: cell-based, human
Data set [1] deals with HI650 (Lung Adenocarcinoma). Nature of the data set: Cell viability analysis, lung cancer HI650. As to conditions: for viability at 10 µM: Homo sapiens, NCI-H1650, 72 h.
For data set [2], the system named is MKN-45 (Gastric Adenocarcinoma). Nature of the data set: Cell viability analysis, gastric cancer MKN-45. As to conditions: for viability at 10 µM: Homo sapiens, MKN-45, 72 h.
Data set [3] relates to HL-60 (Acute Promyelocytic Leukemia). Nature of the data set: Cell viability analysis, leukemia HL-60. The settings on record: for viability at 10 µM: Homo sapiens, HL-60, 72 h.
Data set [4] has as its system TSGH-8301 (Urinary Bladder Carcinoma). The data set is described as follows: Cell viability analysis, bladder cancer TSGH-8301. The settings on record: for viability at 10 µM: Homo sapiens, 72 h.
In data set [5] the test system is HeLa (Cervix Adenocarcinoma). The data set is described as follows: Cell viability analysis, cervical cancer HeLa. The settings on record: for viability at 10 µM: Homo sapiens, HeLa, 72 h.
The test system of data set [6] is MCF7 (Mammary Gland, Adenocarcinoma). The data set is described as follows: Cell viability analysis, breast cancer MCF7. As to conditions: for viability at 10 µM: Homo sapiens, MCF7, 72 h.
The test system of data set [7] is LoVo (Colorectal Adenocarcinoma). The data set is described as follows: Cell viability analysis, colon cancer LoVo. The settings on record: for viability at 10 µM: Homo sapiens, LoVo, 72 h, read-out: cell viability (survival rate), LoVo, drug 10 μM, 72 hours, WST-1, OD450 nm.
In data set [8] the test system is PC3 (p53−) (Prostate Adenocarcinoma). Nature of the data set: Cell viability analysis, prostate cancer PC3. As to conditions: for viability at 10 µM: Homo sapiens, 72 h.
Data set [9] relates to AGS (Gastric Adenocarcinoma). Nature of the data set: Cell viability analysis, gastric cancer AGS. The settings on record: for viability at 10 µM: Homo sapiens, 72 h.
Data set [10] relates to A549 (Lung Adenocarcinoma). The data set is described as follows: Cell viability analysis, lung cancer A549. As to conditions: for viability at 10 µM: Homo sapiens, A549, 72 h.
Data set [11] deals with A375 (Amelanotic Melanoma). Nature of the data set: Cell viability analysis, skin cancer A375. As to conditions: for viability at 10 µM: Homo sapiens, A-375, 72 h.
Data set [12] concerns HepG2 (Hepatocellular Carcinoma). The data set is described as follows: Cell viability analysis, hepatic cancer HepG2. As to conditions: for viability at 10 µM: Homo sapiens, HepG2, 72 h.
Setting [13] is: read-out: cell viability (survival rate), H1650, drug 10 μM, 72 hours, WST-1, OD450 nm.
Setting [14] is: read-out: cell viability (survival rate), MKN-45, drug 10 μM, 72 hours, WST-1, OD450 nm.
Setting [15] is: read-out: cell viability (survival rate), HL-60, drug 10 μM, 72 hours, WST-1, OD450 nm.
The mark [16] stands for this setting: read-out: cell viability (survival rate), TSGH, drug 10 μM, 72 hours, WST-1, OD450 nm.
Where [17] appears, read: read-out: cell viability (survival rate), HeLa, drug 10 μM, 72 hours, WST-1, OD450 nm.
Where [18] appears, read: read-out: cell viability (survival rate), MCF7, drug 10 μM, 72 hours, WST-1, OD450 nm.
Where [19] appears, read: read-out: cell viability (survival rate), PC3, drug 10 μM, 72 hours, WST-1, OD450 nm.
[20] abbreviates: read-out: cell viability (survival rate), AGS, drug 10 μM, 72 hours, WST-1, OD450 nm.
The mark [21] stands for this setting: read-out: cell viability (survival rate), A549, drug 10 μM, 72 hours, WST-1, OD450 nm.
Setting [22] is: read-out: cell viability (survival rate), A375, drug 10 μM, 72 hours, WST-1, OD450 nm.
[23] abbreviates: read-out: cell viability (survival rate), HepG2, drug 10 μM, 72 hours, WST-1, OD450 nm.
Setting [24] is: drug 10 μM, 72 hours, WST-1, OD450 nm.
The mark [25] stands for this setting: drug 10 μM, 72 hours, WST-1, OD450 nm, read-out: cell viability (survival rate), H1650.
[26] abbreviates: drug 10 μM, 72 hours, WST-1, OD450 nm, read-out: cell viability (survival rate), MKN-45.
Where [27] appears, read: drug 10 μM, 72 hours, WST-1, OD450 nm, read-out: cell viability (survival rate), HL-60.
Where [28] appears, read: drug 10 μM, 72 hours, WST-1, OD450 nm, read-out: cell viability (survival rate), TSGH.
Where [29] appears, read: drug 10 μM, 72 hours, WST-1, OD450 nm, read-out: cell viability (survival rate), HeLa.
The mark [30] stands for this setting: drug 10 μM, 72 hours, WST-1, OD450 nm, read-out: cell viability (survival rate), MCF7.
Setting [31] is: drug 10 μM, 72 hours, WST-1, OD450 nm, read-out: cell viability (survival rate), PC3.
Where [32] appears, read: drug 10 μM, 72 hours, WST-1, OD450 nm, read-out: cell viability (survival rate), AGS.
Where [33] appears, read: drug 10 μM, 72 hours, WST-1, OD450 nm, read-out: cell viability (survival rate), A549.
Where [34] appears, read: drug 10 μM, 72 hours, WST-1, OD450 nm, read-out: cell viability (survival rate), A375.
[35] abbreviates: drug 10 μM, 72 hours, WST-1, OD450 nm, read-out: cell viability (survival rate), HepG2.

For the compound `CCC[C@@H]1C[C@@H](C(=O)N[C@@H]([C@H]2O[C@H](SC)[C@H](OP(=O)(O)O)[C@@H](O)[C@H]2O)[C@H](C)Cl)N(C)C1` [Clindamycin phosphate], the viability at 10 µM in [1] (setting [13]) stood at 87%; in data set [2] (setting [14]), 85.6%; in data set [3] (setting [15]), 110%; in data set [4] (setting [16]), 79.6%; in data set [5] (setting [17]), 61.4%; in data set [6] (setting [18]) it was 38.3%. Moreover, the viability at 10 µM turned out to be 44.4% in data set [7]; 40% in data set [8] (setting [19]); 91.6% in data set [9] (setting [20]); 31% in data set [10] (setting [21]); 81.3% in [11] (setting [22]); 90.2% in [12] (setting [23]).
With `CC[C@H]1OC(=O)[C@H](C)[C@@H](O[C@H]2C[C@@](C)(OC)[C@@H](O)[C@H](C)O2)[C@H](C)[C@@H](O[C@@H]2O[C@H](C)C[C@H](N(C)C)[C@H]2O)[C@](C)(O)C[C@@H](C)[C@@H]2N[C@@H](COCCOC)O[C@H]([C@H]2C)[C@]1(C)O` [Dirithromycin], the viability at 10 µM in data set [1] (setting [13]) was 65.5%; in data set [2] (setting [14]), 106%; in data set [3] (setting [15]), 90.2%; in data set [4] (setting [16]), 77.2%; in [5] (setting [17]), 91.9%; in data set [6] (setting [18]), 62.6%. Besides, the viability at 10 µM is 83.7% in data set [7]; 77.1% in data set [8] (setting [19]); 63.2% in data set [9] (setting [20]); 64.8% in data set [10] (setting [21]); 83.7% in [11] (setting [22]); 90.6% in data set [12] (setting [23]).
On to `Clc1ccc(CSC(Cn2ccnc2)c2ccc(Cl)cc2Cl)cc1` (stereo not drawn) [Sulconazole Nitrate], for which the viability at 10 µM in [1] (setting [13]) was determined as 63.4%; in [2] (setting [14]) it was 53.2%; in [3] (setting [15]), 64.1%; in [4] (setting [16]) it was 55%; in data set [5] (setting [17]), 62.1%; in data set [6] (setting [18]), 44.4%. For the same compound, the viability at 10 µM in data set [7] turned out to be 73.6%; in data set [8] (setting [19]) it was 65.7%; in [9] (setting [20]), 83.1%; in data set [10] (setting [21]), 50.7%; in data set [11] (setting [22]), 44.9%; in data set [12] (setting [23]), 88.2%.
Take `CN(C)CCCN1c2ccccc2CCc2ccc(Cl)cc21.Cl` [Clomipramine HCl (Anafranil)]: the “cell viability (survival rate), H1650” value in data set [1] (setting [24]) amounted to 47.5. The “cell viability (survival rate), MKN-45” value in data set [2] (setting [24]) is reported as 70.5. The “cell viability (survival rate), HL-60” value in data set [3] (setting [24]) amounted to 82.7. Further, the “cell viability (survival rate), TSGH” value in [4] (setting [24]) is reported as 46.2. In data set [5] (setting [24]), the “cell viability (survival rate), HeLa” value was 167.6. Besides, the “cell viability (survival rate), MCF7” value in [6] (setting [24]) was 75.7. Besides, the “cell viability (survival rate), LoVo” value in [7] (setting [24]) came out at 87.1. Moreover, in data set [8] (setting [24]), the “cell viability (survival rate), PC3” value turned out to be 75.8. The “cell viability (survival rate), AGS” value in data set [9] (setting [24]) worked out at 60.2. Also, the “cell viability (survival rate), A549” value in [10] (setting [24]) turned out to be 69.1. Besides, the “cell viability (survival rate), A375” value in data set [11] (setting [24]) is given as 88.9. The “cell viability (survival rate), HepG2” value in data set [12] (setting [24]) was found to be 115.6.
Consider `NC(=O)c1cnccn1` [Pyrazinamide], for which the viability at 10 µM in data set [1] (setting [25]) came to 79.1%; in data set [2] (setting [26]), 53.6%; in data set [3] (setting [27]) it was 106%; in data set [4] (setting [28]), 88.3%; in data set [5] (setting [29]), 54.3%; in data set [6] (setting [30]) it was 40.9%. In addition, the viability at 10 µM in data set [7] was found to be 56.9%; in data set [8] (setting [31]), 100%; in data set [9] (setting [32]), 74.9%; in data set [10] (setting [33]), 33.9%; in [11] (setting [34]) it was 58.6%; in [12] (setting [35]), 88.1%.
For the compound `C[C@H]1COc2c(N3CCN(C)CC3)c(F)cc3c(=O)c(C(=O)O)cn1c23` [Levofloxacin (Levaquin), Levofloxacin], the viability at 10 µM turned out to be 64.9% in data set [1] (setting [13]); 44.5% in data set [2] (setting [14]); 93% in data set [3] (setting [15]); 41.8% in [4] (setting [16]); 50.8% in data set [5] (setting [17]); 43.9% in [6] (setting [18]). Also, the viability at 10 µM in data set [7] worked out at 62.6%; in data set [8] (setting [19]), 29.6%; in data set [9] (setting [20]), 51.6%; in data set [10] (setting [21]) it was 36.7%; in data set [11] (setting [22]), 39.3%; in [12] (setting [23]) it was 88.4%.
Regarding `CN(CCOc1ccc(CC2SC(=O)NC2=O)cc1)c1ccccn1` (stereo not drawn) [Rosiglitazone maleate], the viability at 10 µM in data set [1] (setting [25]) was found to be 87.7%; in data set [2] (setting [26]), 73.7%; in data set [3] (setting [27]), 109%; in data set [4] (setting [28]), 85.2%; in data set [5] (setting [29]), 83.3%; in data set [6] (setting [30]), 114%. For the same compound, the viability at 10 µM in data set [7] is 93.5%; in data set [8] (setting [31]) it was 121%; in data set [9] (setting [32]), 113%; in data set [10] (setting [33]), 79.1%; in [11] (setting [34]) it was 70.3%; in data set [12] (setting [35]), 95.1%.
Consider `CC(=O)[C@@]1(O)CC[C@H]2[C@@H]3CCC4=CC(=O)CCC4=C3[C@@H](c3ccc(N(C)C)cc3)C[C@@]21C` [Ulipristal], for which the viability at 10 µM in [1] (setting [25]) stood at 40.3%; in [2] (setting [26]), 36.1%; in [3] (setting [27]), 93.8%; in data set [4] (setting [28]) it was 55.8%; in data set [5] (setting [29]), 72.4%; in data set [6] (setting [30]) it was 65.4%. The viability at 10 µM in data set [7] came out at 67.8%; in [8] (setting [31]), 49.3%; in data set [9] (setting [32]), 55.4%; in data set [10] (setting [33]), 59.9%; in [11] (setting [34]) it was 48.2%; in data set [12] (setting [35]) it was 69%.
`Cc1ccccc1C(OCCN(C)C)c1ccccc1` (stereo not drawn) [Orphenadrine citrate (Norflex), Orphenadrine citrate]: the viability at 10 µM in [1] (setting [13]) came out at 99.6%; in data set [2] (setting [14]), 102%; in data set [3] (setting [15]), 92.9%; in data set [4] (setting [16]) it was 53.4%; in data set [5] (setting [17]), 67.9%; in [6] (setting [18]) it was 35.9%. In addition, the viability at 10 µM in [7] stood at 45.6%; in data set [8] (setting [19]), 41.6%; in data set [9] (setting [20]), 82.9%; in data set [10] (setting [21]), 21.8%; in data set [11] (setting [22]), 89.2%; in data set [12] (setting [23]) it was 97.8%.
With `C=CC1=C(C(=O)O)N2C(=O)[C@@H](NC(=O)/C(=N\O)c3csc(N)n3)[C@H]2SC1` [Cefdinir (Omnicef), Cefdinir], the viability at 10 µM was 93.6% in data set [1] (setting [13]); 70.5% in [2] (setting [14]); 104% in [3] (setting [15]); 35.6% in data set [4] (setting [16]); 86.4% in data set [5] (setting [17]); 55.1% in data set [6] (setting [18]). Besides, the viability at 10 µM in data set [7] is 111%; in data set [8] (setting [19]), 135%; in [9] (setting [20]) it was 79.1%; in data set [10] (setting [21]), 97%; in data set [11] (setting [22]), 92.5%; in data set [12] (setting [23]), 106%.

Usually viability stands for a read-out of living cells in per cent, often relative to untreated cells.
